Measurements from US8017637B2, “Inhibitors of cdc phosphatases” (Ipsen Pharma S.A.S., priority 2004, dated 2011).

Legend:
[1] = biological target: T1, purified recombinant enzyme Cdc25-C (MBP-Cdc25C) (Homo sapiens, UniProt P30307); assay: Measurement of the phosphatase activity of the purified recombinant enzyme Cdc25C (OMFP dephosphorylation, fluorescence); type: biochemical; details: OMFP 500 μM, 4 hours at 30° C.
T1 construct: made in house
T1 sequence (P30307 1-473): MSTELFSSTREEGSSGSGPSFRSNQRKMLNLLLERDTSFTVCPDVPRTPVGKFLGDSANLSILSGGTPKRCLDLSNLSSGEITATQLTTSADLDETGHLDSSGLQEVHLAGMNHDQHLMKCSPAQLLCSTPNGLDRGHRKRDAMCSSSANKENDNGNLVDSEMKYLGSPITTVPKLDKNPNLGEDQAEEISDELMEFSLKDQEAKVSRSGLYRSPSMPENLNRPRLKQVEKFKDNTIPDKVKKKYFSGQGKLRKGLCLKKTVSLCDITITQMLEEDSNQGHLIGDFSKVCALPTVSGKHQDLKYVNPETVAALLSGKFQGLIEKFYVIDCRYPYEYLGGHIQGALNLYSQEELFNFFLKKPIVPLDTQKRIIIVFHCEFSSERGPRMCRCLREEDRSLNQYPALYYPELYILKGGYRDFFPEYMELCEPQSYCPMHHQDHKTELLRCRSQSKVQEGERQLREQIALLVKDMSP
Experimental: i) Measurement of the Phosphatase Activity of the Purified Recombinant Enzyme Cdc25C
The phosphatase activity of the protein MBP-Cdc25C is evaluated by the dephosphorylation of 3-O-methylfluorescein-phosphate (OMFP) to 3-O-methylfluorescein (OMF) with a determination of the fluorescence at 475 nm of the reaction product. This test makes it possible to identify inhibitors of the recombinant enzyme cdc25. The preparation of the fusion protein MBP-Cdc25C is described in the Patent Application PCT WO 01/44467.
The reaction is carried out in 384-well plate format at a final volume of 50 μl. The protein MBP-Cdc25C (prepared as described above) is preserved in the following elution buffer: 20 mM Tris-HCl pH 7.4; 250 mM NaCl; 1 mM EDTA; 1 mM of dithiothreitol (DTT); 10 mM maltose. It is diluted to a concentration of 60 μM in the following reaction buffer: 50 mM Tris-HCl pH 8.2; 50 mM NaCl; 1 mM DTT; 20% glycerol. Measurement of the background noise is carried out with the buffer without the addition of the enzyme. The products are tested at decreasing concentrations starting from 40 μM. The reaction is initiated by the addition of an OMFP solution at 500 μM final (prepared extemporaneously from a 12.5 mM stock solution in 100% DMSO (Sigma #M2629)). After 4 hours at 30° C. in a single-use 384-well plate, the fluorescence measured at OD 475 nm is read using a Victor^2 plate reader (EGG-Wallac). The determination of the concentration inhibiting the enzyme reaction by 50% is calculated from three independent experiments. Only the values contained in the linear part of the sigmoid are retained for linear regression analysis.

[2] = system: Mia-Paca2 lines (human pancreatic cancer cells); assay: Anti-proliferative activity, WST1 colorimetric test, Mia-Paca2 cells; type: cell-based; details: MIA PaCa-2, 96 hours treatment, up to 10 μM, read-out: IC50 on the cell proliferation of the Mia-Paca2 lines
Experimental: (§1) ii) Characterization of Anti-Proliferative Activity:
(§2) By way of example, the effect of a treatment by the compounds of the examples described previously on two lines of human Mia-Paca2 and DU145 cells will be studied. The cell lines DU145 (human prostate cancer cells) and Mia-PaCa2 (human pancreatic cancer cells) were acquired from the American Tissue Culture Collection (Rockville, Md., USA). The cells placed in 80 μl of Dulbecco's Modified Eagle medium (Gibco-Brl, Cergy-Pontoise, France) completed with 10% foetal calf serum inactivated by heating (Gibco-Brl, Cergy-Pontoise, France), 50,000 units/l of penicillin and 50 mg/l streptomycin (Gibco-Brl, Cergy-Pontoise, France), and 2 mM of glutamine (Gibco-Brl, Cergy-Pontoise, France) were seeded on a 96-well plate on day 0. The cells were treated on day 1 for 96 hours at increasing concentrations of each of the compounds to be tested up to 10 μM. At the end of the of this period, quantification of the cell proliferation is evaluated by a colorimetric test based on the cleavage of the tetrazolium salt WST1 by the mitochondrial dehydrogenases in the viable cells leading to the formation of formazan (Boehringer Mannheim, Meylan, France). These tests are carried out in duplicate with 8 determinations per concentration tested. For each compound to be tested, the values included in the linear part of the sigmoid were retained for linear regression analysis and used in order to estimate the inhibitory concentration IC50. The products are solubilized in dimethylsulphoxide (DMSO) at to 10^−2M and finally used in culture with 0.1% DMSO.

[3] = system: DU-145 lines (human prostate cancer cells); assay: Anti-proliferative activity, WST1 colorimetric test, DU145 cells; type: cell-based; details: 96 hours treatment, up to 10 μM, read-out: IC50 on the cell proliferation of the DU-145 lines
Experimental: as §1, §2

| SMILES | IC50 [1] | IC50 [2] | IC50 [3] | melting point |
| --- | --- | --- | --- | --- |
| COc1ccc(CNC(=O)c2nc3c(s2)C(=O)C=C(NCCCN(C)CCCNC2=CC(=O)c4sc(C(=O)NCc5ccc(OC)cc5)nc4C2=O)C3=O)cc1 [Example 33, 5.5′-[(methylimino)bis(propane-3,1-diylimino)]bis[N-(4-methoxybenzyl)-4,7-dioxo-4,7-dihydro-1,3-benzothiazole-2-carboxamide]] | ≤ 1 µM | ≤ 10 µM | ≤ 10 µM | 174 to 175 °C |
| CN(CCCNC1=CC(=O)c2scnc2C1=O)CCCNC1=CC(=O)c2scnc2C1=O [Example 25, 5.5′-[(methylimino)bis(propane-3,1-diylimino)]bis(1,3-benzothiazole-4,7-dione)] | ≤ 1 µM | ≤ 10 µM | ≤ 10 µM | 223 to 224 °C |
| CN(CCCNC1=CC(=O)c2sc(C(=O)NCCCN3CCCC3=O)nc2C1=O)CCCNC1=CC(=O)c2sc(C(=O)NCCCN3CCCC3=O)nc2C1=O [Example 7, 5.5′-[(methylimino)bis(propane-3,1-diylimino)]bis{4,7-dioxo-N-[3-(2-oxopyrrolidin-1-yl)propyl]-4,7-dihydro-1,3-benzothiazole-2-carboxamide}] | ≤ 1 µM | ≤ 10 µM | ≤ 10 µM | 185 to 186 °C |
